Source: patent US12178846B2, “Methods of using gap junctions as therapeutic targets for the treatment of degenerative disorders of the retina” (The Research Foundation for The State University of New York, priority 2014, dated 2024)
Entries after “also recorded” stand apart in the source; their conditions may differ.

Legend:
[1] = test system: amacrine cells in the INL; assay: NMDA-induced excitotoxic loss of amacrine cell subpopulations in the INL; assay type: cell-based, mouse
Procedure: Various methods were employed to produce cell death. (1) Single cell apoptosis: CytC was injected into individual RGCs or Müller cells for 15 minutes after which retinas were incubated for 4 hours in oxygenated Ames medium before fixation. […] Both control and drug-treated retinas were then exposed for 1 hour to NMDA (100-300 μM) to induce excitotoxicity followed by 4 hours in the control Ames solution. (3) Retinal ischemia: Transient in vivo retinal ischemia was induced by introducing into the anterior chamber a 33-gauge needle attached to a saline-filled reservoir (0.9% sodium chloride) that was raised above the animal so as to increase intraocular pressure (IOP) to a level […]. MFA (2 μl, 500 μM) was administered intravitreally either 30 minutes before or 3 and 24 hours following the ischemic insult. The opposite eye was cannulated, but maintained at normal IOP to serve as a normotensive control. After 40-50 minutes, the needle was withdrawn and ischemia was evidenced by corneal whitening. After 7 days of reperfusion, mice were sacrificed and eyes were processed to assess retinal damage and neuronal death. […]
In some experiments, cells counts were limited to retrograde labeled RGCs in the GCL or certain subpopulation of amacrine cells, identified by specific markers, such as calretinin (CR), calbindin (CB) and choline acetyltransferase (ChAT) in the INL. Fluorescence intensity measures were made of glial fibrillary acidic protein (GFAP), which is overexpressed in Müller glial cells following retinal injury. Expression of GFAP and connexins were quantified by analysis of confocal images with Metavue software (Molecular Devices). Average pixel fluorescence intensities were measured by using uniform rectangular areas (3-5 per image) extending either from the GCL to the outer limiting membrane for GFAP or through the IPL for connexins. […]

NMDA receptors = conditions: at the concentrations tested here; cited from earlier work
[2] = MFA 50 μM 30 min, NMDA 300 μM 1 h, p<0.01

SMILES: Cc1ccc(Cl)c(Nc2ccccc2C(=O)O)c1Cl [MFA, meclofenamic acid]
- number of CB-immunolabeled ACs in the INL [1, 2]: prevented the loss; also recorded: prevented such reduction
- number of CR-immunolabeled ACs in the INL [1, 2]: prevented the loss; also recorded: prevented reduction
- number of ChAT-positive ACs in the INL ([1]; MFA, NMDA-induced excitotoxicity, p>0.1): nor was this affected
- inhibitory effect on NMDA receptors in neurons (NMDA receptors): no inhibitory effect
